Test results as given in ChEMBL document CHEMBL1201862, “PubChem BioAssay data set” (2004).
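48-hour exposure; five concentrations; linearly interpolated endpoints. Here, GI50 denotes the concentration required for 50% inhibition of growth.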 Activity calls are given as the source filed them. Cut-off read from the data, not from the text of the source: active = GI50 up to about 1.1 µM and inactive = higher.

Experiments:
Test in all cases: growth of human tumour cells (NCI), 48 h
[1] = system: 786-0
[2] = system: A498
[3] = system: A549
[4] = system: ACHN
[5] = system: CAKI-1
[6] = system: CCRF-CEM
[7] = system: COLO 205
[8] = system: DLD-1
[9] = system: DMS-114
[10] = system: DMS-273
[11] = system: EKVX
[12] = system: HCC 2998
[13] = system: HCT-116
[14] = system: HCT-15
[15] = system: HL-60
[16] = system: HOP-18
[17] = system: HOP-62
[18] = system: HOP-92
[19] = system: HT-29
[20] = system: IGROV-1
[21] = system: K562
[22] = system: KM-20L2
[23] = system: KM12
[24] = system: LOX IMVI
[25] = system: LXFL 529
[26] = system: M14
[27] = system: M19-MEL
[28] = system: MOLT-4
[29] = system: Malme-3M
[30] = system: NCI-H226
[31] = system: NCI-H23
[32] = system: NCI-H460
[33] = system: NCI-H522
[34] = system: OVCAR-3
[35] = system: OVCAR-4
[36] = system: OVCAR-5
[37] = system: OVCAR-8
[38] = system: RPMI-8226
[39] = system: RXF 393
[40] = system: RXF 631
[41] = system: SF-268
[42] = system: SF-295
[43] = system: SF-539
[44] = system: SK-MEL-28
[45] = system: SK-MEL-2
[46] = system: SK-MEL-5
[47] = system: SK-OV-3
[48] = system: SN12C
[49] = system: SNB-19
[50] = system: SNB-75
[51] = system: SNB-78
[52] = system: SR
[53] = system: SW-620
[54] = system: TK-10
[55] = system: U-251
[56] = system: UACC-257
[57] = system: UACC-62
[58] = system: UO-31
[59] = system: XF498

COc1ccc2c3c(n(Cc4ccccc4)c(=O)c2c1)-c1cc(OC)c(OC)cc1C3C (centres undefined)
GI50 [1]: 7.45 µM (inactive) | GI50 [2]: 30.5 µM (inactive) | GI50 [3]: 18.6 µM (inactive) | GI50 [4]: 11.5 µM (inactive) | GI50 [5]: 28.1 µM (inactive) | GI50 [6]: > 89.5 µM (inactive) | GI50 [7]: 41.6 µM (inactive) | GI50 [8]: 50.9 µM (inactive) | GI50 [9]: 23 µM (inactive) | GI50 [10]: 7.6 µM (inactive) | GI50 [11]: 10.6 µM (inactive) | GI50 [12]: 36.6 µM (inactive) | GI50 [13]: 14.7 µM (inactive) | GI50 [14]: 28.1 µM | GI50 [15]: > 46.8 µM (inactive) | GI50 [16]: 28.3 µM (inactive) | GI50 [17]: 14.8 µM (inactive) | GI50 [18]: 14.4 µM (inactive) | GI50 [19]: 25.7 µM (inactive) | GI50 [20]: 37.6 µM (inactive) | GI50 [21]: 9.89 µM (inactive) | GI50 [22]: 25.6 µM (inactive) | GI50 [23]: 23.3 µM (inactive) | GI50 [24]: 14.3 µM (inactive) | GI50 [25]: 10.4 µM (inactive) | GI50 [26]: 44 µM (inactive) | GI50 [27]: 31.4 µM (inactive) | GI50 [28]: 8.32 µM (inactive) | GI50 [29]: 15.6 µM (inactive) | GI50 [30]: 17.9 µM (inactive) | GI50 [31]: 6.92 µM (inactive) | GI50 [32]: 4.71 µM (inactive) | GI50 [33]: 9.08 µM (inactive) | GI50 [34]: 15 µM (inactive) | GI50 [35]: 6.61 µM (inactive) | GI50 [36]: > 28.4 µM (inactive) | GI50 [37]: 19.8 µM (inactive) | GI50 [38]: 14.5 µM (inactive) | GI50 [39]: 12.3 µM (inactive) | GI50 [40]: 15.1 µM (inactive) | GI50 [41]: 9.91 µM (inactive) | GI50 [42]: 11.6 µM (inactive) | GI50 [43]: 7.52 µM (inactive) | GI50 [44]: 43.5 µM (inactive) | GI50 [45]: 17 µM (inactive) | GI50 [46]: 12.2 µM (inactive) | GI50 [47]: 18.8 µM (inactive) | GI50 [48]: 14.7 µM (inactive) | GI50 [49]: 21.7 µM (inactive) | GI50 [50]: 13.6 µM (inactive) | GI50 [51]: 57.7 µM (inactive) | GI50 [52]: 5.12 µM (inactive) | GI50 [53]: 35.7 µM (inactive) | GI50 [54]: > 54.3 µM (inactive) | GI50 [55]: 5.69 µM (inactive) | GI50 [56]: 69.8 µM (inactive) | GI50 [57]: 18.7 µM (inactive) | GI50 [58]: 22.2 µM (inactive) | GI50 [59]: 7.96 µM (inactive)
